In patent EP4656642A1, “ESTROGEN RECEPTOR PROTEOLYSIS TARGETING CHIMERA COMPOUND AND USE THEREOF” (GAN & LEE PHARM CO., LTD, priority 2023, dated 2024):

Assays:
Type in all cases: cell-based
[1] = molecular target: T1, ERα (Homo sapiens, UniProt P03372); experiment: Degradation of ERα in MCF-7 cells (immunoblotting, 4 h)
T1 sequence (P03372 1-595): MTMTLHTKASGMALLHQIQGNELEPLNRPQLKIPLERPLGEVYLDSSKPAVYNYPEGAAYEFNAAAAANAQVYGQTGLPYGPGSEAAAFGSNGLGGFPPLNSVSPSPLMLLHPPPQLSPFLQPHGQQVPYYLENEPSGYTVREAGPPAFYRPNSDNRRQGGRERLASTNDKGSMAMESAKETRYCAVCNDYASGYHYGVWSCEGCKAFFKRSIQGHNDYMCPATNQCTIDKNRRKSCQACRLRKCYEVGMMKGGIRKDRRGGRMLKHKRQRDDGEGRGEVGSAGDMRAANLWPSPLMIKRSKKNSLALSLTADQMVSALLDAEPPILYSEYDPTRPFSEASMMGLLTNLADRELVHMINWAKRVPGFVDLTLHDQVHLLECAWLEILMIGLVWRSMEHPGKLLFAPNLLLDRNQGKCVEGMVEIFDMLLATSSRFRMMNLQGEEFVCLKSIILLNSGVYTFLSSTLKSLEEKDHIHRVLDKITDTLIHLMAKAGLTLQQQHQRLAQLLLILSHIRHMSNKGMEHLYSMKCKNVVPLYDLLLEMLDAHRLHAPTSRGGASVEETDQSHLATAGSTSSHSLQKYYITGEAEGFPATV
Protocol: MCF-7 cells were inoculated into 6-well plates at a density of 3×10^5 cells/well and cultured at 37°C, 5% CO2 for 24h. After the cells were attached to the wall, 1µL of the compound solution in dimethyl sulfoxide (final concentration 0.15-1000nM) was added and continued to be cultured in incubator at 37°C with 5% CO2 for 4 h. After 4 h, the culture medium was discarded, and each well was washed once with pre-cooled 1×DPBS, and the cells were lysed with a mixture of 50 µL of RIPA lysis buffer (P0013B, Beyotime) and 1× protease inhibitor (P1005, Beyotime), and then centrifuged at 14,000 g for 30 min at 4°C after resting on ice for 20 min, and the supernatant was carefully collected to detect the protein level of ERα by protein immunoblotting (Immunoblotting).
Protein immunoblotting: The total protein concentration in the collected cell lysate supernatant was determined by BCA Protein Concentration Assay Kit (Enhanced) (P0009, Beyotime). According to the total protein concentration detected by BCA, the protein was adjusted to 1 µg/µL with RIPA lysis buffer and 5× SDS-PAGE protein loading buffer (MB01015, Genscript), and the protein was denatured by water bath at 95°C for 5 min, and then centrifuged after denaturation to enrich the condensate on the wall of the centrifuge tubes as a loading sample. […] At the end of electrophoresis, the proteins in the SDS-PAGE gels were transferred to a PVDF membrane at a constant voltage of 100 V for 60 min. After that, the PVDF membrane corresponding to ERα protein and internal reference protein was cut out and incubated in 1×QµickBlock blocking solution (P0252, Beyotime) for 30 min at room temperature on a shaker. […] Protein profiles were analyzed by Image Studio Lite analysis software for grayscale values. Grayscale correction values were calculated for each sample using the Formula: corrected grayscale value = grayscale value of the target protein /corresponding grayscale value of the internal reference. The degradation rate for the compounds was then calculated by comparing the corrected grayscale values of the compound group to the control group. Table 7 Degradation rate (%) of ERα by the PROTAC compounds of the present disclosure and positive control sample in MCF-7 cells

[2] = system: MCF-7 cells; experiment: Inhibition of cell proliferation of MCF-7 cells (CCK-8, 9 days); settings: treated for 9 days, CCK-8 kit (Table 6)
From the text: Test Example 4 Inhibitory effect of the PROTAC compounds disclosed in the present disclosure on cell proliferation of MCF-7 cells
The complete medium required for MCF-7 cells (source ATCC) was DMEM (gibco, Product number :11995-065) basal medium containing 10% fetal bovine serum. MCF-7 cells were inoculated in 96-well plates at a density of 800 cells/well, and different concentrations of the PROTAC compounds 1-55 provided in the embodiments of the present disclosure and a positive control sample ARV-471 (source: Innochem) were prepared to treat cells, and cells were treated at 37°C in a cell culture incubator with 5% CO2 for 9 days. Cell viability was detected using a CCK -8 kit (Beyotime , Product number: C0040) according to the manufacturer's instruction. […] Table 5 IC50 values for inhibition of the proliferation of MCF-7 cells by the PROTAC compounds of the present disclosure and positive control sample

[3] = molecular target: T1, ERα; experiment: Degradation of ERα in T-47D cells (immunoblotting, 4 h); design: host or cells: T-47D
Protocol: T-47D cells were inoculated into 6-well plates at a density of 3×10^5 cells/well and cultured at 37°C, 5% CO2 for 24 h. After the cells were attached to the wall, 1µL of the compound solution in dimethyl sulfoxide (final concentration 0.15-1000 nM) was added and continued to be cultured in the incubator with 5% CO2 at 37°C for 4 h. After 4 h, the culture medium was discarded, and each well was washed once with pre-cooled 1×DPBS, and the cells were lysed with a mixture of 50 µL of RIPA lysis buffer (P0013B, Beyotime) and 1× protease inhibitor (P1005, Beyotime), and then centrifuged at 14,000 g for 30 min at 4°C after resting on ice for 20 min, and the supernatant was carefully collected to detect the protein level of ERα by protein immunoblotting (Immunoblotting).

Structure (SMILES)	Degradation rate (%) of ERα in MCF-7 cells ([1]; 1nM compound)	Degradation rate (%) of ERα in MCF-7 cells ([1]; 10nM compound)	IC50 [2]	Degradation rate (%) of ERα in T-47D cells ([3]; 1nM compound)	Degradation rate (%) of ERα in T-47D cells ([3]; 10nM compound)
O=C1CCC(N2Cc3c(ccc4c3OCC43CCN(C4CCN(C(=O)C5CCN(c6ccc([C@@H]7c8ccc(O)cc8CC[C@@H]7c7ccccc7)cc6)CC5)CC4)CC3)C2=O)C(=O)N1 (stereo partly shown) [A78]	64%	78%	3.35 nM	79%	89%
O=C1CCC(N2Cc3c(ccc4c3OCC43CCN(CC(=O)N4CCC5(CC4)CN(c4ccc([C@@H]6c7ccc(O)cc7CC[C@@H]6c6ccccc6)cc4)C5)CC3)C2=O)C(=O)N1 (stereo partly shown) [B22]	38%	70%	11.8 nM	47%	83%
O=C1CCC(N2C(=O)c3cc4c(cc3C2=O)OC2(CCN(C3CCN(C5CN(c6ccc([C@@H]7c8ccc(O)cc8CC[C@@H]7c7ccccc7)cc6)C5)CC3)CC2)C4)C(=O)N1 (stereo partly shown) [A59]	11%	11%	905 nM	42%	50%
O=C1CCC(N2Cc3c(ccc4c3OCC43CCN(C4CN(C(=O)C5CCN(c6ccc([C@@H]7c8ccc(O)cc8CC[C@@H]7c7ccccc7)cc6)CC5)C4)CC3)C2=O)C(=O)N1 (stereo partly shown) [D4]	41%	69%	3580 nM	54%	79%
O=C1CCC(N2Cc3c(ccc4c3OCC43CCN(C(=O)CN4CCC5(CC4)CN(c4ccc([C@@H]6c7ccc(O)cc7CC[C@@H]6c6ccccc6)cc4)C5)CC3)C2=O)C(=O)N1 (stereo partly shown) [B17]	37%	61%	16.6 nM	52%	76%
O=C1CCC(N2Cc3c(ccc4c3OCC43CCN(CC(=O)N4CCC5(CCN(c6ccc([C@@H]7c8ccc(O)cc8CC[C@@H]7c7ccccc7)cc6)CC5)C4)CC3)C2=O)C(=O)N1 (stereo partly shown) [A73]	26%	72%	4170 nM	55%	73%
O=C1CCC(N2Cc3c(ccc4c3OCC43CCN(C(=O)CN4CCC5(CC4)CCN(c4ccc([C@@H]6c7ccc(O)cc7CC[C@@H]6c6ccccc6)cc4)CC5)CC3)C2=O)C(=O)N1 (stereo partly shown) [A62]	52%	82%	15.2 nM	73%	89%
O=C1CCC(N2C(=O)c3cc4c(cc3C2=O)OC2(CCN(C(=O)CN3CCC5(CC3)CCN(c3ccc([C@@H]6c7ccc(O)cc7CC[C@@H]6c6ccccc6)cc3)CC5)CC2)C4)C(=O)N1 (stereo partly shown) [A64]	13%	47%	206 nM	12%	61%

Next, values leading:

Degradation rate (%) of ERα in MCF-7 cells ([1]; 1nM compound)	Degradation rate (%) of ERα in MCF-7 cells ([1]; 10nM compound)	IC50 [2]	Degradation rate (%) of ERα in T-47D cells ([3]; 1nM compound)	Degradation rate (%) of ERα in T-47D cells ([3]; 10nM compound)	Structure (SMILES)
29%	51%	43.5 nM	5%	56%	O=C1CCC(N2Cc3c(ccc4c3OCC43CCN(CC4CCC(N5CCN(c6ccc([C@@H]7c8ccc(O)cc8CC[C@@H]7c7ccccc7)cc6)CC5)CC4)CC3)C2=O)C(=O)N1 (stereo partly shown) [H15]
57%	45%	6.57 nM	56%	65%	C[C@@H]1Cc2cc(O)ccc2C(c2c(F)cc(N3CCN(C[C@H]4CC[C@H](C(=O)N5CCC6(CC5)COc5c6ccc6c5CN(C5CCC(=O)NC5=O)C6=O)CC4)CC3)cc2F)N1CC(F)F (stereo partly shown) [I6]
10%	14%	41.9 nM	5%	35%	O=C1CCC(N2Cc3c(ccc4c3OCC43CCN(C[C@H]4CC[C@@H](C#Cc5ccc([C@@H]6c7ccc(O)cc7CC[C@@H]6c6ccccc6)cc5)CC4)CC3)C2=O)C(=O)N1 (stereo partly shown) [H53]
53%	61%	5320 nM	49%	74%	CN(CC(=O)N1CCC2(CC1)COc1c2ccc2c1CN(C1CCC(=O)NC1=O)C2=O)C1CCC2(CC1)CN(c1ccc([C@@H]3c4ccc(O)cc4CC[C@@H]3c3ccccc3)cc1)C2 (stereo partly shown) [H52]
11%	44%	260 nM	24%	60%	O=C1CCC(N2Cc3c(ccc4c3OCC43CCN(CC(=O)N(CC4CC4)C4CC5(CCN(c6ccc([C@@H]7c8ccc(O)cc8CC[C@@H]7c7ccccc7)cc6)CC5)C4)CC3)C2=O)C(=O)N1 (stereo partly shown) [H54]
-7%	11%	1180 nM	16%	21%	O=C1CCC(N2Cc3cc4c(cc3C2=O)OC2(CC4)CN(C3CC4(CCC5(CCN(c6ccc([C@@H]7c8ccc(O)cc8CC[C@@H]7c7ccccc7)cc6)CC5)CC4)C3)C2)C(=O)N1 (stereo partly shown) [H24]
-6%	5%	544 nM	13%	8%	O=C1CCC(N2Cc3c(ccc4c3OCC43CCN(C4CC5(C4)CN(c4ccc([C@@H]6c7ccc(O)cc7CC[C@@H]6c6ccccc6)cc4)C5)CC3)C2=O)C(=O)N1 (stereo partly shown) [L18]
23%	69%	3070 nM	66%	84%	O=C1CCC(N2Cc3c(ccc4c3OCC43CCN(C(=O)CN4CCN(C(=O)C5CCN(c6ccc([C@@H]7c8ccc(O)cc8CC[C@@H]7c7ccccc7)cc6)CC5)CC4)CC3)C2=O)C(=O)N1 (stereo partly shown) [K43]
29%	75%	486 nM	16%	67%	COC(=O)[C@H]1CC(N2CCC3(CC2)COc2c3ccc3c2CN(C2CCC(=O)NC2=O)C3=O)CCN1CC1CCN(c2ccc([C@@H]3c4ccc(O)cc4CC[C@@H]3c3ccccc3)cc2)CC1 (stereo partly shown) [J7]
